Experimental data reported in ChEMBL document CHEMBL1909046, “DrugMatrix in vitro pharmacology data”.

Tests used:
[1] = target: T1, Type-2 angiotensin II receptor (Homo sapiens, UniProt P50052); type: cell-based; conditions: cho-k1; further: in other assays of this panel Not Active means under 50% inhibition at 10 µM
T1 sequence (P50052 whole entry): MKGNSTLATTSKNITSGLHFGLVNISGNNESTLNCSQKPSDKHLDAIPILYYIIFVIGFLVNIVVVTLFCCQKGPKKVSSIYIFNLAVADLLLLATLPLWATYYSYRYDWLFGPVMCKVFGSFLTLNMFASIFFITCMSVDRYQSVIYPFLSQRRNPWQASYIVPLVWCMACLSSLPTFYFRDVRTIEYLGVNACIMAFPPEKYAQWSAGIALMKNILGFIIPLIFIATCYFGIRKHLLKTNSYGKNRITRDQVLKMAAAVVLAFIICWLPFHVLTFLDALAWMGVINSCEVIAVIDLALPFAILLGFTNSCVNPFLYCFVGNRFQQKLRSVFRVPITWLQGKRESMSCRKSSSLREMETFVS

B2 bradykinin receptor = target: T2, B2 bradykinin receptor (Homo sapiens, UniProt P30411); type: cell membranes, Membrane; conditions: chem-1; further: in other assays of this panel Not Active means under 50% inhibition at 10 µM
T2 sequence (P30411 whole entry): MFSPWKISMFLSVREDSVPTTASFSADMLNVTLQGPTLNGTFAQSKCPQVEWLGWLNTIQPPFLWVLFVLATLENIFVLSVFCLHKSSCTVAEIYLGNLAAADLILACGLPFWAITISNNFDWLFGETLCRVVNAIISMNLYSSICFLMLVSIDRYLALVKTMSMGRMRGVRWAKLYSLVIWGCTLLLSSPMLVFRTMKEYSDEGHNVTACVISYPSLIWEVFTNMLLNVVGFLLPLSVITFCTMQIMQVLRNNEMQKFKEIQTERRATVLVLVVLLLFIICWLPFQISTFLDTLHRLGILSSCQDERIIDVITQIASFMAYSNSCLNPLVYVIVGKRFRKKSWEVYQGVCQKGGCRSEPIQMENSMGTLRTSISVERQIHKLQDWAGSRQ

[2] = target: T3, Cholecystokinin receptor type A (Homo sapiens, UniProt P32238); type: cell membranes, Membrane; conditions: 1321-n1; further: in other assays of this panel Not Active means under 50% inhibition at 10 µM
T3 sequence (P32238 whole entry): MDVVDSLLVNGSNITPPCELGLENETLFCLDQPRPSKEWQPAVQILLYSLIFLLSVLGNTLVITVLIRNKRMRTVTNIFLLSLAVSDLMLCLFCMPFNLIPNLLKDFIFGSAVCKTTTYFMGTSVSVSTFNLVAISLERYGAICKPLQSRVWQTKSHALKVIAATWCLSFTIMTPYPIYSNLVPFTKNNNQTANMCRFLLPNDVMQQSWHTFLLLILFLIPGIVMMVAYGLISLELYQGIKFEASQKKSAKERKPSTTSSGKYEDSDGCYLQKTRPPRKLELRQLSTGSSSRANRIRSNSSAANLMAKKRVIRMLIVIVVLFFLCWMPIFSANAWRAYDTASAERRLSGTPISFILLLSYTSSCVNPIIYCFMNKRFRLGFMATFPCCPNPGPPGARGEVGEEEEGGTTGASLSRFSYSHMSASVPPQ

[3] = target: Aldo-keto reductase family 1 member B1 (Rattus norvegicus, UniProt P07943); assay: biochemical; type: tissue-based, Lens of camera-type eye;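 further: inhibition of aldose reductase enzyme activity, measured with DL-glyceraldehyde as the substrate; in other assays of this panel Not Active means under 50% inhibition at 10 µM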
[4] = target: T4, 5-hydroxytryptamine receptor 2C (Homo sapiens, UniProt P28335); assay: DRUGMATRIX: Serotonin (5-Hydroxytryptamine) 5-HT2C radioligand binding (ligand: [3H] Mesulergine); type: cell membranes, CHO-K1, Membrane; conditions: Not Active = under 50% inhibition at 10 µM
T4 sequence (P28335 whole entry): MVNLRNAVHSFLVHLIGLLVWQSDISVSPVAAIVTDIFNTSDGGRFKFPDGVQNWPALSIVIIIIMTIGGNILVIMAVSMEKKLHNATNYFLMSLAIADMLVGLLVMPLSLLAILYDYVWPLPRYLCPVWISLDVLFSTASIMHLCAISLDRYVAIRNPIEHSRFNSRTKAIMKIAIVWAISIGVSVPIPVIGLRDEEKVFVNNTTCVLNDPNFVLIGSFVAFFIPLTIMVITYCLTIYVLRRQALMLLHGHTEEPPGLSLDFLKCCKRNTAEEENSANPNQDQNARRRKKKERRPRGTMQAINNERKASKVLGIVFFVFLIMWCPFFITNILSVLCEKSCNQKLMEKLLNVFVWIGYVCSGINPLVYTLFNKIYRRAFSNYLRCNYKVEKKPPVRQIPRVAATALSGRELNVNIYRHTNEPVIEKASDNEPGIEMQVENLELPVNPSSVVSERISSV

[5] = DRUGMATRIX: Potassium Channel [KATP] radioligand binding (ligand: [3H] Glyburide); type: cell membranes, Membrane; conditions: hit-t15; Not Active = under 50% inhibition at 10 µM
[6] = DRUGMATRIX: Imidazoline I2, Central radioligand binding (ligand: [3H] Idazoxan); type: cell membranes, Rattus norvegicus, Wistar, Cerebral cortex, Membrane; conditions: Not Active = under 50% inhibition at 10 µM

In the case of Nc1ccc(S(=O)(=O)Nc2ncccn2)cc1 [SULFADIAZINE], the IC50 [1] is reported as “Not Active”, the IC50 (B2 bradykinin receptor) is reported as “Not Active” and the IC50 [2] is reported as “Not Active”. The IC50 [3] was “Not Active”, the IC50 ([4]; cho-k1) was “Not Active” and the IC50 [5] was “Not Active”. The Ki [5] was “Not Active”, the IC50 [6] was “Not Active” and the Ki [6] was “Not Active”.
In the case of CN[C@@H]1[C@H](O)[C@H](NC)[C@H]2O[C@@]3(O)C(=O)C[C@@H](C)O[C@H]3O[C@@H]2[C@H]1O [SPECTINOMYCIN], the IC50 [1] is reported as “Not Active”, the IC50 (B2 bradykinin receptor) is reported as “Not Active” and the IC50 [2] is reported as “Not Active”. The IC50 [3] was “Not Active”, the IC50 ([4]; cho-k1) was “Not Active” and the IC50 [5] was “Not Active”. For the same compound, the Ki [5] was “Not Active”, the IC50 [6] was “Not Active” and the Ki [6] was “Not Active”.
In the case of COc1cc(N)nc2[nH]c(-c3ccc(F)cc3)c(-c3ccncc3)c12, the IC50 [1] is reported as “Not Active”, the IC50 (B2 bradykinin receptor) is reported as “Not Active” and the IC50 [2] is reported as “Not Active”. The IC50 [3] was “Not Active”, the IC50 ([4]; read-out: IC50) was 1.24 µM and the Ki ([4]; read-out: Ki) was 0.648 µM. For the same compound, the IC50 [5] was “Not Active”, the Ki [5] was “Not Active” and the IC50 [6] was “Not Active”. The Ki [6] was “Not Active”.
In the case of CN(CCOc1ccc(CC2SC(=O)NC2=O)cc1)c1ccccn1 (configuration not stated) [ROSIGLITAZONE], the IC50 [1] is reported as “Not Active”, the IC50 (B2 bradykinin receptor) is reported as “Not Active” and the IC50 [2] is reported as “Not Active”. For the same compound, the IC50 [3] was “Not Active”, the IC50 ([4]; cho-k1) was “Not Active” and the IC50 [5] was “Not Active”. The Ki [5] was “Not Active”, the IC50 [6] was “Not Active” and the Ki [6] was “Not Active”.
With C=C(C)[C@H]1Cc2c(ccc3c2O[C@@H]2COc4cc(OC)c(OC)cc4[C@@H]2C3=O)O1 [ROTENONE] the IC50 [1] was “Not Active”, the IC50 (B2 bradykinin receptor) was “Not Active” and the IC50 [2] was “Not Active”. For the same compound, the IC50 [3] was “Not Active”, the IC50 ([4]; cho-k1) was “Not Active” and the IC50 [5] was “Not Active”. For the same compound, the Ki [5] was “Not Active”, the IC50 [6] was “Not Active” and the Ki [6] was “Not Active”.
For O=C(O)C(Cl)(Cl)Cl [TRICHLOROACETIC ACID], the IC50 [1] was “Not Active”, the IC50 (B2 bradykinin receptor) was “Not Active” and the IC50 [2] was “Not Active”. For the same compound, the IC50 [3] was “Not Active”, the IC50 ([4]; cho-k1) was “Not Active” and the IC50 [5] was “Not Active”. For the same compound, the Ki [5] was “Not Active”, the IC50 [6] was “Not Active” and the Ki [6] was “Not Active”.
In the case of CNS(=O)(=O)Cc1ccc2[nH]cc(CCN(C)C)c2c1, the IC50 [1] is reported as “Not Active”, the IC50 (B2 bradykinin receptor) is reported as “Not Active” and the IC50 [2] is reported as “Not Active”. The IC50 [3] was “Not Active”, the IC50 ([4]; cho-k1) was “Not Active” and the IC50 [5] was “Not Active”. The Ki [5] was “Not Active”, the IC50 [6] was “Not Active” and the Ki [6] was “Not Active”.
In the case of CCCc1nn(C)c2c(=O)[nH]c(-c3cc(S(=O)(=O)N4CCN(C)CC4)ccc3OCC)nc12, the IC50 [1] is reported as “Not Active”, the IC50 (B2 bradykinin receptor) is reported as “Not Active” and the IC50 [2] is reported as “Not Active”. The IC50 [3] was “Not Active”, the IC50 ([4]; cho-k1) was “Not Active” and the IC50 [5] was “Not Active”. For the same compound, the Ki [5] was “Not Active”, the IC50 [6] was “Not Active” and the Ki [6] was “Not Active”.
For Nc1nc2c(c(=O)[nH]1)N(C=O)C(CNc1ccc(C(=O)N[C@@H](CCC(=O)O)C(=O)O)cc1)CN2 (some centres not stated) [LEUCOVORIN], the IC50 [1] was “Not Active”, the IC50 (B2 bradykinin receptor) was “Not Active” and the IC50 [2] was “Not Active”. The IC50 [3] was “Not Active”, the IC50 ([4]; cho-k1) was “Not Active” and the IC50 [5] was “Not Active”. The Ki [5] was “Not Active”, the IC50 [6] was “Not Active” and the Ki [6] was “Not Active”.
With CCS(=O)(=O)CCn1c([N+](=O)[O-])cnc1C [TINIDAZOLE] the IC50 [1] was “Not Active”, the IC50 (B2 bradykinin receptor) was “Not Active” and the IC50 [2] was “Not Active”. The IC50 [3] was “Not Active”, the IC50 ([4]; cho-k1) was “Not Active” and the IC50 [5] was “Not Active”. The Ki [5] was “Not Active”, the IC50 [6] was “Not Active” and the Ki [6] was “Not Active”.
For C#CCN(C)[C@H](C)Cc1ccccc1 [SELEGILINE], the IC50 [1] was “Not Active”, the IC50 (B2 bradykinin receptor) was “Not Active” and the IC50 [2] was “Not Active”. For the same compound, the IC50 [3] was “Not Active”, the IC50 ([4]; cho-k1) was “Not Active” and the IC50 [5] was “Not Active”. The Ki [5] was “Not Active”, the IC50 ([6]; read-out: IC50) was 1.61 µM and the Ki ([6]; read-out: Ki) was 1.08 µM.
For COc1cc(C(=O)NS(=O)(=O)c2ccccc2C)ccc1Cc1cn(C)c2ccc(NC(=O)OC3CCCC3)cc12 [ZAFIRLUKAST], the IC50 [1] was “Not Active”, the IC50 (B2 bradykinin receptor) was “Not Active” and the IC50 [2] was “Not Active”. The IC50 [3] was “Not Active”, the IC50 ([4]; cho-k1) was “Not Active” and the IC50 [5] was “Not Active”. For the same compound, the Ki [5] was “Not Active”, the IC50 [6] was “Not Active” and the Ki [6] was “Not Active”.
For STANNOUS FLUORIDE, the IC50 [1] was “Not Active”, the Ki [1] was “Not Active” and the IC50 (B2 bradykinin receptor) was “Not Active”. For the same compound, the Ki (B2 bradykinin receptor) was “Not Active”, the IC50 [2] was “Not Active” and the Ki [2] was “Not Active”. For the same compound, the IC50 [3] was “Not Active”, the Ki [3] was “Not Active” and the IC50 ([4]; cho-k1) was “Not Active”. For the same compound, the Ki ([4]; cho-k1) was “Not Active”, the IC50 [5] was “Not Active” and the Ki [5] was “Not Active”. The IC50 [6] was “Not Active” and the Ki [6] was “Not Active”.
With COc1ccc(/C=C/C(=O)Nc2ccccc2C(=O)O)cc1OC the IC50 [1] was “Not Active”, the IC50 (B2 bradykinin receptor) was “Not Active” and the IC50 [2] was “Not Active”. The IC50 [3] was “Not Active”, the IC50 ([4]; cho-k1) was “Not Active” and the IC50 [5] was “Not Active”. The Ki [5] was “Not Active”, the IC50 [6] was “Not Active” and the Ki [6] was “Not Active”.
